Measured values reported in patent US20260240746A1, “TOPICAL COMPOSITION AND IMPLEMENTATIONS THEREOF” (ULTRAMARINE & PIGMENTS LIMITED, priority 2022, published 2026).
Several values for one entry are separate records, joined by “and”; a condition that tells them apart may be missing. Equal entries are not always repeated.

Experiments:
skin = assay: Moisturization analysis (Scalar moisture checker); type: in vivo, human; settings: skin of the hand, 20° C., 60% RH
Method: The topical composition samples of the present disclosure and the commercial silicones (cyclopentasiloxane, dimethicone) were applied on a skin patch and the moisture content was analyzed for a duration of 8 hrs. The test was conducted on 3 volunteers. Three areas were marked on the skin of the hand. The composition was applied by rubbing in a circular direction for a period of two minute on the marked areas. The third area was kept blank. The readings were taken after five minutes of drying by Scaler Moisture Checker. The temperature of the room was kept at 20° C. and humidity was maintained at 60% RH. The moisture analysis was done using moisture checker from Scalar Impressive works. Scalar moisture checker works on the principle of capacitance to measure the permittivity of skin. […] The checker was pressed on the desired area perpendicularly to the skin and was held for a few seconds. […] Moisture level Content of 45.1 and above represent a very high moisture level, when moisture level is between 39.1-45.0 it is high normal, between 27.1-39.0 is mid normal, between 22.1-27.0 is low normal, between 12.1 to 22.0 is low and below 12.1 is very low moisture level. A graph of time after application and the moisture level content was plotted for each composition.

[1] = system: Murine fibroblast cell line (3T3); assay: Skin reactivity analysis by agar diffusion assay; type: cell-based; settings: 3T3 cells, 24 hours exposure
Method: Skin reactivity analysis was carried out for the topical composition samples by agar diffusion assay. Murine fibroblast cell line (3T3) cells were seeded onto 60 mm tissue culture grade plastic Petri dishes and incubated for 24 hrs. After 24 hrs the media was replaced by a layer of 1% agar. Stock solution of 100 mg/ml of reference standard was prepared in sterile phosphate buffered saline (PBS) and tested at 10% (100 mg/ml). 5 μl of reference standard was loaded on to 6 mm sterile Whatman filter paper discs which were placed on the agar layer. Neat topical composition sample was used for testing. Approximately 5 μl of the topical composition sample was loaded on to 6 mm sterile Whatman filter paper discs which were placed on the agar layer. Sterile PBS was used as the negative control. Positive and negative controls were run concurrently. After an exposure of 24 hours to the samples, the assays were terminated by the addition of MTT (3-[4,5-dimethylthiazol-2-yl]-2,5-diphenyltetrazolium bromide; Thiazolyl blue) (Sigma M 5655) and incubated overnight in the dark. The following day, the cells were observed under the microscope and checked for the presence of crystals under the area of sample loading. The sample causing cell death was indicated by a clear zone of inhibition. The colour was allowed to develop overnight and the zone of inhibition was measured. The readings of the test samples were then scored based on comparisons with the positive and negative controls in compliance with the USP (U.S. Pharmacopoeia) grades for the agar diffusion test (Table 2).

Row | SMILES | moisture content retained until 8 hours after application (skin; 8 hours after application) | moisture content after application (skin; after application) | Reactivity [1] | Zone of Inhibition, mean per experiment ([1]; sample neat (100% concentration), Expt 1-3, sulphate) | Zone of Inhibition, individual readings ([1]; sample neat (100% concentration), reference standard 10% (100 mg/ml), Expt 1-3, sulphate) | Zone of Inhibition, Mean ± SD of three independent experiments ([1]; sample neat (100% concentration), listed as positive control, sulphate) | Zone of Inhibition, Mean ± SD of three independent experiments ([1]; sample neat (100% concentration), sulphate)
1 | C[Si]1(C)O[Si](C)(C)O[Si](C)(C)O[Si](C)(C)O[Si](C)(C)O1 [Cyclopentasiloxane, cyclopentasiloxane] | 21% | 23% | – | – | – | – | –
2 | CCCCCCCCCCCCOS(=O)(=O)[O-].[Na+] [Positive Control, sodium dodecyl sulphate] | – | – | Severe (Zone extends greater than 1.0 cm beyond specimen) | 1.08 cm and 1.14 cm and 1.20 cm | 1.05 cm and 1.03 cm and 1.17 cm and 1.13 cm and 1.07 cm and 1.23 cm and 1.20 cm and 1.18 cm and 1.22 cm | 1.14±0.06 cm | 1.14 ± 0.06 cm
